Experiments:
[1] = system: mature hCOs; assay: mature hCO, force of contraction; type: cell-based, human; conditions: 2 days, compound 3 at 3 μM, 63 at 0.3 μM, 65 at 1 μM
Description: (§1) hCOs were cultured in CTRL medium for formation for 5 days and then either kept in CTRL medium culture or changed to maturation medium (Mills et al., 2017a) comprising DMEM without glucose, glutamine and phenol red (ThermoFisher Scientific) supplemented with 4% […](without insulin) (ThermoFisher Scientific), 1% GlutaMAX (ThermoFisher Scientific), 200 μM L-ascorbic acid 2-phosphate sesquimagnesium salt hydrate and 1% Penicillin/Streptomycin (ThermoFisher Scientific), 1 mmol/L glucose and 100 μmon palmitic acid (conjugated to bovine serum albumin within B27 by incubating for 2h at 37° C., Sigma) with changes every 2-3 days.
The pole deflection was used to approximate the force of contraction as per (Mills et al., 2017a). A Leica DMi8 inverted high content Imager was used to capture a 10 s time-lapse of each hCO contracting in real time at 37° C. […]
Hits were next validated in mature hCOs using a targeted concentration range based on their active concentrations in the initial immature hCO screen (FIG. 3A). Proliferation markers were quantified using high magnification confocal imaging as we found flow cytometry to be inaccurate in hCO (data not shown). […]

[2] = system: mature hCO; assay: RNA-sequencing of mature hCO treated with compounds; type: cell-based, human; conditions: 2 days; for genes regulated (RNA-seq): 3 μM compound 3, 0.3 μM compound 63, 1 μM compound 65
Description: For each experiment 15-20 hCOs were pooled, snap frozen and RNA extracted using Trizol (ThermoFisher Scientific), treated with DNAse (Qiagen) and purified using RNeasy Minielute Cleanup Kit (Qiagen). The quality of the RNA was assessed by Fragment Analyzer (Advances Analytical Technologies) and samples with RNA quality number >8.9 were used for library preparation. RNA samples were processed with Illumina TruSeq Stranded mRNA Library prep kit selecting for poly(A) tailed RNA following the manufacturer's recommendations. Libraries were quantified with Qubit HS (ThermoFisher) and Fragment Analyzer (Advances Analytical Technologies) adjusted to the appropriate concentration for sequencing. Indexed libraries were pooled and sequenced at a final concentration of 1.8 pmol/L on an Illumina NextSeq 500 high-output run using paired-end chemistry with 75 bp read length.
The sequencing data was demultiplexed using Illumina bc12fastq2-v2.17. The quality of the reads was assessed thanks to FastQC (https://www.bioinformatics.babraham.ac.uk/projects/fastqc/). The reads were then processed and mapped to the human genome hg38 using the Bcbio-nextgen framework version 1.0.3 (https://github.com/chapmanb/bcbio-nextgen). The aligner used was HISAT2 2.0.5. For sample quality assessment, raw counts were normalised with DESeq2 regularized logarithm function. A principal component analysis (PCA) was performed using R v 3.3.1(Team, 2015) and led to the detection of a batch effect among samples which was corrected using the removeBatchEffect function from Limma v3.30.13. The identification of the differentially expressed genes between treated and non-treated samples was performed using DESeq2 v1.14.1 (Love et al., 2014) in R v 3.3.1 (Team, 2015) using the design ˜Batch+Compound to account for the batch effect directly. A FDR of 0.1 was defined to call for differentially expressed genes. The mechanistic networks in were generated using IPA upstream analysis (QIAGEN Inc., https://www.qiagenbioinformatics.com/products/ingenuity-pathway-analysis). Gene Ontology (GO) annotations enrichment analyses were performed with GOSeq v1.28.0 (Young et al., 2010), were generated in R using ggplot2 (http://ggplot2.tidyverse.org/index.html) and package GOSemSim v2.2.0 (Yu et al., 2010) for term similarities.
In order to determine the biological processes driving the pro-proliferative effects of our hit compounds, we performed RNA-sequencing (RNA-seq) and single organoid quantitative proteomics (FIG. 4A). These analyses were performed on hCOs treated with compounds 3, 63 and 65 at concentrations of 3 μM, 0.3 μM and 1 μM, respectively. RNA-seq for hCO treated with compounds 3 and 65 clustered distinctly in principal component analysis (FIG. 4B) and regulated a total of 239 and 207 genes (FIG. 9A), respectively.

[3] = pharmacokinetic properties in vivo
[4] = system: mature hCOs; assay: mature hCO, cardiomyocyte proliferation (Ki-67 intensity, Ki-67+ α-actinin cardiomyocytes); type: cell-based, human; conditions: mature hCO; for Ki-67+ cardiomyocytes: 2 days, compound 3 at 3 μM, 63 at 0.3 μM, 65 at 1 μM; for proliferative response (Ki-67 intensity) with 10 μM simvastatin: 1 μM compound 65, 3 μM compound 3 or 10 μM compound 6.28; for proliferation above the optimal concentrations: above 3 μM (compound 3), above 1 μM (compound 65)
Description: as §1
Whole-Mount Immunostaining hCOs were fixed for 60 min with 1% paraformaldehyde (Sigma) at room temperature and washed 3× with PBS, after which they were incubated with primary antibodies (see Star Methods Table) in Blocking Buffer, 5% FBS and 0.2% Triton-X-100 (Sigma) in PBS overnight at 4° C. Cells were then washed in Blocking Buffer 2× for 2 h and subsequently incubated with secondary antibodies (see Star Methods Table) and Hoechst33342 (1:1000) overnight at 4° C. They were washed in Blocking Buffer 2× for 2 h and imaged in situ or mounted on microscope slides using Fluoromount-G (Southern Biotech).
For screening hCOs were imaged using a Leica DMi8 high content imaging microscope for in situ imaging. Custom batch processing files were written in Matlab R2013a (Mathworks) to remove the background, calculate the image intensity, and export the batch data to an Excel (Microsoft) spreadsheet.
For more detailed images an Olympus IX81 confocal microscope was used for mounted hCO imaging. For cell cycle analysis experiments 3 random fields of view were imaged and manually quantified for proliferation. These were added together to calculate the percentage of hPSC-CM proliferation in each hCO.
Hits were next validated in mature hCOs using a targeted concentration range based on their active concentrations in the initial immature hCO screen (FIG. 3A). Proliferation markers were quantified using high magnification confocal imaging as we found flow cytometry to be inaccurate in hCO (data not shown). Compounds 3, 63 and 65 had no impact on contractile force (FIG. 3B) at concentrations of 3 μM, 0.3 μM and 1 μM, respectively. […] The effects of both compound 3 and compound 65 were reversible, with proliferation ceasing within 5 days of compound withdrawal (FIG. 8B). Therefore, compound 3 (FIG. 3G) and compound 65 (Goldberg et al., 2009) (FIG. 3H) are both capable of inducing bona fide cardiomyocyte proliferation in mature hCOs without adversely affecting contractile properties.

[5] = system: immature hCOs; assay: immature hCO screen, force of contraction; type: cell-based, human; conditions: 2 days
Description: The pole deflection was used to approximate the force of contraction as per (Mills et al., 2017a). A Leica DMi8 inverted high content Imager was used to capture a 10 s time-lapse of each hCO contracting in real time at 37° C. Custom batch processing files were written in Matlab R2013a (Mathworks) to convert the stacked TIFF files to AVI, track the pole movement (using vision.PointTracker), determine the contractile parameters, produce a force-time figure, and export the batch data to an Excel (Microsoft) spreadsheet.
The compound library included 5,000 biologically annotated pre-clinical, clinical, and tool compounds. They were selected based on a combination of criteria including balancing the number of external/internal compounds, diversity of annotated targets to cover greater than 1500 biological targets, and known targets associated with cell proliferation. […] Both negative vehicle (DMSO) and positive (CHIR99021) controls were included on each plate in each experiment (FIG. 2B,C).

Structure (SMILES) | contractile force [1] | network significantly regulated (network analysis of RNA-seq) [2] | transcription of cell cycle controllers PLK1, CCNB2, CCND1, CCNA2 and FOXM1 ([2]; 3 μM) | genes regulated (RNA-seq) [2] [genes] | pharmacokinetic properties [3] | Ki-67+ cardiomyocytes with 10 μM simvastatin ([4]; 3 μM compound 3) | Ki-67+ cardiomyocytes [4] | proliferative response (Ki-67 intensity) with 10 μM simvastatin [4] | proliferation above the optimal concentrations [4] | contractile parameters / force of contraction [5] | mevalonate pathway enzymes SQLE, HMGCS1 and CYP51A1 ([2]; 1 μM) | networks regulated based on RNA-seq data (gene ontologies) ([2]; 1 μM) | transcription of CDKN2B (p15) ([2]; 1 μM)
Cc1ccc(NC(=O)c2ccnc(N3CCOCC3)c2)cc1Nc1ccnc(N2CC(C)OC(C)C2)n1 (stereo not drawn) [compound 3] | no impact | MAPK14 (p38α) network | upregulated | 239 | poor | abolished | increased | abolished | no further increase | without affecting contractile parameters | – | – | –
Cc1cc(Oc2ccnc(Nc3ccc(S(N)(=O)=O)cc3)c2)c(-c2ccccn2)nc1C [compound 65] | no impact | TGFβ receptor (TGFβR) and bone morphogenic protein receptor (BMPR) networks | – | 207 | poor | – | increased | abolished | no further increase | without affecting contractile parameters | activated | an extracellular matrix network and a cholesterol biosynthesis network | inhibited

Source: patent US20220187282A1, “CARDIOMYOCYTE PROLIFERATION” (The Council of the Queensland Institute of Medical Research, priority 2019, published 2022)
